Reference: ChEMBL document CHEMBL5584343, “Cerastecin Inhibition of the Lipooligosaccharide Transporter MsbA to Combat Acinetobacter baumannii: From Screening Impurity to In Vivo Efficacy” (J Med Chem, 2024)
≈ marks a conversion by molar mass, not a printed value.

Key:
Acinetobacter baumannii [1] = assay: Antibacterial activity against Acinetobacter baumannii ATCC19606 assessed as bacterial growth inhibition incubated for 18 to 20 hrs by microbroth dilution method; assay type: functional; conditions: time 18-20 hrs
[2] = Inhibition of wildtype Acinetobacter baumannii MsbA preincubated for 30 mins followed by ATP addition and measured after 1 hrs by Transcreener ADP2 F1 assay
Acinetobacter baumannii [3] = assay: Antibacterial activity against Acinetobacter baumannii ATCC19606 incubated for 18 to 20 hrs in presence of 1% of human serum by microbroth dilution method; assay type: functional; conditions: time 18-20 hrs
Acinetobacter baumannii [4] = assay: Selectivity ratio of MIC95 for antibacterial activity against Acinetobacter baumannii ATCC19606 in the presence of 1% human serum to MIC95 for antibacterial activity against Acinetobacter baumannii ATCC19606; assay type: functional

Structure (SMILES)	MIC95 (Acinetobacter baumannii [1]) [µM]	EC50 [2] [nM]	MIC95 (Acinetobacter baumannii [3]) [µM]	Selectivity ratio (Acinetobacter baumannii [4])
CCCCc1ccc(S(=O)(=O)Nc2ccc(NC(=O)CCC(=O)Nc3ccc(NS(=O)(=O)c4ccc(CCCC)cc4)c(C(=O)O)c3)c(C(=O)O)c2)cc1	0.391 (≈ 0.305 µg/mL)	124	12.5	32
CCCCc1ccc(S(=O)(=O)Nc2ccc(NC(=O)[C@H]3C[C@@H]3C(=O)Nc3ccc(NS(=O)(=O)c4ccc(CCCC)cc4)c(C(=O)O)c3)cc2C(=O)O)cc1 (racemic)	1.1 (≈ 0.874 µg/mL)	> 22100	> 200	>181
CCCCc1ccc(S(=O)(=O)Nc2ccc(NC(=O)CCNC(=O)c3ccc(NS(=O)(=O)c4ccc(CCCC)cc4)c(C(=O)O)c3)cc2C(=O)O)cc1	0.112 (≈ 0.0872 µg/mL)	83	11.3	101
CCCCc1ccc(S(=O)(=O)Nc2ccc(NC(=O)CCC(=O)Nc3ccc(NS(=O)(=O)c4ccc(CCCC)cc4)c(-c4nn[nH]n4)c3)cc2C(=O)O)cc1	0.553 (≈ 0.444 µg/mL)	291	25	45
CCCCc1ccc(S(=O)(=O)Nc2ccc(NC(=O)CCC(=O)Nc3cccc(C(=O)O)c3)cc2C(=O)O)cc1	> 200	32400	> 200	
CCCCc1ccc(C(=O)Nc2ccc(NC(=O)CCC(=O)Nc3ccc(NS(=O)(=O)c4ccc(CCCC)cc4)c(C(=O)O)c3)cc2C(=O)O)cc1	> 200	> 198000	> 200	
CCCCc1ccc(S(=O)(=O)Nc2ccc(NC(=O)/C=C\C(=O)Nc3ccc(NS(=O)(=O)c4ccc(CCCC)cc4)c(C(=O)O)c3)cc2C(=O)O)cc1	0.277 (≈ 0.215 µg/mL)	27	8.84	32
CCCCc1ccc(S(=O)(=O)Nc2ccc(NCCCCNc3ccc(NS(=O)(=O)c4ccc(CCCC)cc4)c(C(=O)O)c3)cc2C(=O)O)cc1	0.783 (≈ 0.588 µg/mL)	623	12.5	16
CCCCc1ccc(S(=O)(=O)Nc2ccc(C(=O)NCCNC(=O)c3ccc(NS(=O)(=O)c4ccc(CCCC)cc4)c(C(=O)O)c3)cc2C(=O)O)cc1	> 200	> 198000	> 200	
CCCCc1ccc(S(=O)(=O)Nc2ccc(N(C)C(=O)CCC(=O)N(C)c3ccc(NS(=O)(=O)c4ccc(CCCC)cc4)c(C(=O)O)c3)cc2C(=O)O)cc1	> 200	> 198000	> 200	
CCCCc1ccc(S(=O)(=O)Nc2ccc(NC(=O)CCC(=O)Nc3ccc(NS(=O)(=O)c4ccc(CCCC)cc4)c(C(=O)O)c3)cc2F)cc1	> 200	1170	> 200	
CCCCc1ccc(S(=O)(=O)N(C)c2ccc(NC(=O)CCC(=O)Nc3ccc(N(C)S(=O)(=O)c4ccc(CCCC)cc4)c(C(=O)O)c3)cc2C(=O)O)cc1	> 200	> 198000	> 200	
CCCCc1ccc(S(=O)(=O)Nc2ccc(NC(=O)CCC(=O)Nc3ccc(NS(=O)(=O)c4ccc(CCCC)cc4)c(C(=O)O)c3)cc2)cc1	0.781 (≈ 0.574 µg/mL)	790	> 200	>256
CCCCc1ccc(S(=O)(=O)Nc2ccc(NC(=O)CCC(=O)Nc3ccc(NS(=O)(=O)c4ccc(N5CCOCC5)nc4)c(C(=O)O)c3)cc2C(=O)O)cc1	1.56 (≈ 1.26 µg/mL)	188	25	16
CCCCc1ccc(S(=O)(=O)Nc2ccc(NC(=O)CCC(=O)Nc3ccc(NS(=O)(=O)c4ccc(CCCC)cc4)c(C(=O)O)c3)cc2O)cc1	1.56 (≈ 1.17 µg/mL)	626	25	16
O=C(CCC(=O)Nc1ccc(NS(=O)(=O)c2ccc(Oc3ccccc3)nc2)c(C(=O)O)c1)Nc1ccc(NS(=O)(=O)c2ccc(Oc3ccccc3)nc2)c(C(=O)O)c1	0.196 (≈ 0.167 µg/mL)	136	6.25	32
CCCCc1ccc(S(=O)(=O)Nc2ccc(CNCCC(=O)Nc3ccc(NS(=O)(=O)c4ccc(CCCC)cc4)c(C(=O)O)c3)cc2C(=O)O)cc1	0.277 (≈ 0.212 µg/mL)	308	1.56	5.6
CCCCc1ccc(S(=O)(=O)Nc2ccc(NC/C=C\CNc3ccc(NS(=O)(=O)c4ccc(CCCC)cc4)c(C(=O)O)c3)cc2C(=O)O)cc1	3.12 (≈ 2.34 µg/mL)	> 198000	25	8
CCCCc1ccc(S(=O)(=O)Nc2ccc(NC(=O)CCC(=O)Nc3ccc(NS(=O)(=O)c4ccc(CCCC)cc4)c(S(=O)(=O)O)c3)cc2C(=O)O)cc1	0.196 (≈ 0.16 µg/mL)	37	12.5	64
CCCCc1ccc(S(=O)(=O)Nc2ccc(NC(=O)CCC(=O)Nc3ccc(NS(=O)(=O)c4ccc(OC)nc4)c(C(=O)O)c3)cc2C(=O)O)cc1	1.56 (≈ 1.18 µg/mL)	92	25	16
